Results as given in patent publication US20020169101A1, “Treatment of sexual dysfunction” (priority 1999, published 2002).
Like-named read-outs stand apart in the source and are kept apart here.

Assays:
human NMB receptor (BB1) = target: T1, human NMB receptor (BB1) (Homo sapiens, UniProt P28336); test: BB1 binding assay ([125I][Tyr4]bombesin displacement, CHO-K1 membranes); details: for Ki: Table 1, human NMB receptor binding affinity, Ki from IC50 by Cheng-Prusoff, read-out: NMB Ki
T1 construct: expressed in transfected cells; membranes prepared from the cells
How it was run: (§1)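 Membranes from CHO-K1 cells stably expressing human NMB (BB1) or GRP (BB2) receptors, in 50 mM Tris-HCl pH 7.4 with BSA and protease inhibitors, incubated with [125I][Tyr4]bombesin (<0.1 nM) for 60 min (BB1) or 90 min (BB2). Nonspecific binding defined with 1 μM bombesin; filtration and gamma counting; IC50 converted to Ki by Cheng-Prusoff.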

human GRP receptor (BB2) = target: T2, human GRP receptor (BB2) (Homo sapiens, UniProt P30550); test: BB2 binding assay ([125I][Tyr4]bombesin displacement, CHO-K1 membranes); details: for Ki: Table 1, human GRP receptor binding affinity, Ki from IC50 by Cheng-Prusoff, read-out: GRP Kj
T2 construct: expressed in transfected cells; membranes prepared from the cells
How it was run: as §1

[1] = Table 3, N-acyl derivatives of Intermediate III-7
[2] = second 'TABLE 4', N-terminal urethane derivatives of Intermediate III-7
[3] = binding studies to the bombesin receptors

T1 sequence (P28336 whole entry): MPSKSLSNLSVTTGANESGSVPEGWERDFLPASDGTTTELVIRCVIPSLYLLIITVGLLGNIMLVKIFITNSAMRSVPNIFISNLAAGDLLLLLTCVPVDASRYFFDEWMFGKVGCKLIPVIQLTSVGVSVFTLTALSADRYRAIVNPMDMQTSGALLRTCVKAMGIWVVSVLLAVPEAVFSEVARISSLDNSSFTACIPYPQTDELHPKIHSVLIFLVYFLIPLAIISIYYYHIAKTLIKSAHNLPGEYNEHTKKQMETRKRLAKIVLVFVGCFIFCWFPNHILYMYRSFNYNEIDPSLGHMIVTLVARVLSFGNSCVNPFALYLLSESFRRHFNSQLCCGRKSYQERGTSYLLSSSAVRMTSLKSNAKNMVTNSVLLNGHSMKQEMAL
T2 sequence (P30550 whole entry): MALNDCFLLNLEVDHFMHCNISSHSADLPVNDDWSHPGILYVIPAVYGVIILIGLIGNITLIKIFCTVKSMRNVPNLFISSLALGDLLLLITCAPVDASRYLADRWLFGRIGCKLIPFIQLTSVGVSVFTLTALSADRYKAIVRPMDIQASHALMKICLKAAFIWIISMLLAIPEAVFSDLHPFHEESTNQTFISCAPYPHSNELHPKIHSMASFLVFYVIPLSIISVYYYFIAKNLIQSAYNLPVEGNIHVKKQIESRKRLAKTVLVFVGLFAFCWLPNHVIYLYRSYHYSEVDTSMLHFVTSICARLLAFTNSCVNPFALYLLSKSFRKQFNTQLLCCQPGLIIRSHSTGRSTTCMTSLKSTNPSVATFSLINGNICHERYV

Row | Structure (SMILES) | Ki (human NMB receptor (BB1)) [nM] | melting point [°C] | IC50 (human NMB receptor (BB1); [1]) [nM] | IC50 (human GRP receptor (BB2); [1]) [µM] | further results
1 | COc1ccc(C2(CNC(=O)[C@](C)(Cc3c[nH]c4ccccc34)Nc3nc(-c4ccc(C#N)cc4)co3)CCCCC2)nc1 [Example 13, (S)-2-[4-(4-Cyano-phenyl)-oxazol-2-ylamino]-3-(1H-indol-3-yl)-N-[1-(5-methoxy-pyridin-2-yl)-cyclohexylmethyl]-2-methyl-propionamide] | 19 | 105 to 108 |  |  | Ki (human GRP receptor (BB2)): 1380 nM
2 | C[C@@](Cc1c[nH]c2ccccc12)(Nc1nc(-c2ccc([N+](=O)[O-])cc2)co1)C(=O)NCC(=O)c1ccccc1 [Example 11, (S)-3-(1H-Indol-3-yl)-2-methyl-2-[4-(4-nitro-phenyl)-oxazol-2-ylamino]-N-(2-oxo-2-phenyl-ethyl)-propionamide] | 5580 | 80 to 90 |  |  | 
3 | CCc1coc(N[C@@](C)(Cc2c[nH]c3ccccc23)C(=O)NCC2(c3ccc(OC)cn3)CCCCC2)n1 [Example 15, (S)-2-(4-Ethyl-oxazol-2-ylamino)-3-(1H-indol-3-yl)-N-[1-(5-methoxy-pyridin-2-yl)-cyclohexylmethyl]-2-methyl-propionamide] | 213 | 60 to 65 |  |  | Ki (human GRP receptor (BB2)): 1770 nM
4 | C[C@@](Cc1c[nH]c2ccccc12)(NC(=O)c1cc2ccccc2s1)C(=O)NCC1(c2ccccn2)CCCCC1 [Example 71, Benzo[b]thiophene-2-carboxylic acid {(S)-2-(1H-indol-3-yl)-1-methyl-1-[(1-pyridin-2-yl-cyclohexylmethyl)-carbamoyl]-ethyl}-amide] |  |  | 611 | > 10 | 
5 | C[C@@](Cc1c[nH]c2ccccc12)(Nc1cncnc1)C(=O)NCC1(c2ccccn2)CCCCC1 [Example 20, (S)-3-(1H-Indol-3-yl)-2-methyl-N-(1-pyridin-2-yl-cyclohexylmethyl)-2-(pyrimidin-5-ylamino)-propionamide] | 3160 | 95 to 98 |  |  | 
6 | C[C@@](Cc1c[nH]c2ccccc12)(NC(=O)c1ccccc1Cl)C(=O)NCC1(c2ccccn2)CCCCC1 [Example 44, 2-Chloro-N—{(S)-2-(1H-indol-3-yl)-1-methyl-1-[(1-pyridin-2-yl-cyclohexyl-methyl)-carbamoyl]-ethyl}-benzamide] |  |  | 3230 | > 10 | 
7 | Cc1ccsc1C(=O)N[C@@](C)(Cc1c[nH]c2ccccc12)C(=O)NCC1(c2ccccn2)CCCCC1 [Example 74, 3-Methyl-thiophene-2-carboxylic acid {(S)-2-(1H-indol-3-yl)-1-methyl-1-[(1-pyridin-2-yl-cyclohexylmethyl)-carbamoyl]-ethyl}-amide] |  |  | 744 | > 10 | 
8 | Cc1ccccc1COC(=O)N[C@@](C)(Cc1c[nH]c2ccccc12)C(=O)NCC1(c2ccccn2)CCCCC1 [Example 97, {(S)-2-(1H-Indol-3-yl)-1-methyl-1-[(1-pyridin-2-yl-cyclohexylmethyl)-carbamoyl]-ethyl}-carbamic acid 2-methyl-benzyl ester] |  |  |  |  | IC50 (human NMB receptor (BB1); [2]): 751 nM; IC50 (human GRP receptor (BB2); [2]): > 10 µM
9 | C[C@@](Cc1c[nH]c2ccccc12)(NC(=O)c1cccc2cc[nH]c12)C(=O)NCC1(c2ccccn2)CCCCC1 [Example 69, 1H-Indole-7-carboxylic acid {(S)-2-(1H-indol-3-yl)-1-methyl-1-[(1-pyridin-2-yl-cyclohexylmethyl)-carbamoyl]-ethyl}-amide] |  |  | 1370 | > 10 | 
10 | COc1ccc(C2(CNC(=O)[C@](C)(Cc3c[nH]c4ccccc34)NC(=O)c3cc4ccccc4[nH]3)CCCCC2)nc1 [Example 86, 1H-Indole-2-carboxylic Acid ((S)-2-(1H-indol-3-yl)-1-{[1-(5-methoxy-pyridin-2-yl)-cyclohexylmethyl]-carbamoyl}-1-methyl-ethyl)-amide] |  |  |  |  | IC50 (human NMB receptor (BB1); [3]): 11 nM; IC50 (human GRP receptor (BB2); [3]): 0.119 µM
11 | C[C@@](Cc1c[nH]c2ccccc12)(NS(=O)(=O)c1ccccc1Cl)C(=O)NCC1(c2ccccn2)CCCCC1 [Example 113, (S)-2-(2-chloro-benzenesulfonylamino)-3-(1H-indol-3-yl)-2-methyl-N-(1-pyridin-2-yl-cyclohexylmethyl)-propionamide] |  |  |  |  | IC50 (human NMB receptor (BB1)): 257 nM; IC50 (human GRP receptor (BB2)): > 10 µM

Further lines, with some results ahead:

Row | Ki (human NMB receptor (BB1)) [nM] | melting point [°C] | IC50 (human NMB receptor (BB1); [1]) [nM] | IC50 (human GRP receptor (BB2); [1]) [µM] | Structure (SMILES) | further results
12 | 303 | 180 to 195 |  |  | C[C@@](Cc1c[nH]c2ccccc12)(Nc1ccncc1)C(=O)NCC1(c2ccccn2)CCCCC1 [Example 18, (S)-3-(1H-Indol-3-yl)-2-methyl-2-(pyridin-4-ylamino)-N-(1-pyridin-2-yl-cyclohexylmethyl)-propionamide] | 
13 | 653 | 70 to 75 |  |  | Cc1cccc(N[C@@](C)(Cc2c[nH]c3ccccc23)C(=O)NCC2(c3ccccn3)CCCCC2)c1 [Example 22, (S)-3-(1H-Indol-3-yl)-2-methyl-N-(1-pyridin-2-yl-cyclohexylmethyl)-2-m-tolylamino-propionamide] | 
14 | 1250 | 98 to 101 |  |  | C[C@@](Cc1c[nH]c2ccccc12)(Nc1cncc2ccccc12)C(=O)NCC1(c2ccccn2)CCCCC1 [Example 19, (S)-3-(1H-Indol-3-yl)-2-(isoquinolin-4-ylamino)-2-methyl-N-(1-pyridin-2-yl-cyclohexylmethyl)-propionamide] | 
15 | 15 | 110 to 114 |  |  | COc1ccc(C2(CNC(=O)[C@](C)(Cc3c[nH]c4ccccc34)Nc3nc(-c4ccc([N+](=O)[O-])cc4)cs3)CCCCC2)nc1 [Example 16] | 
16 | 137 | 113 to 115 |  |  | O=C(NCC1(c2ccccn2)CCCCC1)[C@@H](Cc1ccccc1)Nc1ccccc1 [Example 24, (R)-3-Phenyl-2-phenylamino-N-[1 1-pyridin-2-yl-cyclohexylmethyl)-propionamide] | 
17 | 2080 | 198 to 200 |  |  | C[C@@](Cc1c[nH]c2ccccc12)(Nc1nc2ccccc2o1)C(=O)NCC1(c2ccccn2)CCCCC1 [Example 17, (S)-2-(Benzooxazol-2-ylamino)-3-(1H-indol-3-yl)-2-methyl-N-(1-pyridin-2-yl-cyclohexylmethyl)-propionamide] | 
18 | 469 | 189 to 192 |  |  | COCC1(CNC(=O)[C@](C)(Cc2c[nH]c3ccccc23)Nc2nc(-c3ccc([N+](=O)[O-])cc3)co2)CCCCC1 [Example 10, (S)-3-(1H-Indol-3-yl)-N-(1-methoxymethyl-cyclohexylmethyl)-2-methyl-2-[4-(4-nitro-phenyl)-oxazol-2-ylamino]-propionamide] | 
19 | 106 | 85 to 90 |  |  | COc1ccc(C2(CNC(=O)[C@](C)(Cc3c[nH]c4ccccc34)Nc3nc(-c4ccccc4)co3)CCCCC2)nc1 [Example 14, (S)-3-(1H-Indol-3-yl)-N-[1-(5-methoxy-pyridin-2-yl)-cyclohexylmethyl]-2-methyl-2-(4-phenyl-oxazol-2-ylamino)-propionamide] | Ki (human GRP receptor (BB2)): 1190 nM
20 |  |  | 4480 | > 10 | C[C@@](Cc1c[nH]c2ccccc12)(NC(=O)c1cccc2cccnc12)C(=O)NCC1(c2ccccn2)CCCCC1 [Example 79, Quinoline-8-carboxylic acid {(S)-2-(1H-indol-3-yl)-1-methyl-1-[(1-pyridin-2-yl-cyclohexylmethyl)-carbamoyl]-ethyl}-amide] | 
21 |  |  | 2270 | > 10 | C[C@@](Cc1c[nH]c2ccccc12)(NC(=O)c1ccc(S(C)(=O)=O)cc1)C(=O)NCC1(c2ccccn2)CCCCC1 [Example 37, N—{(S)-2-(1H-Indol-3-yl)-1-methyl-1-[(1-pyridin-2-yl-cyclohexylmethyl)-carbamoyl]-ethyl}-4-methanesulfonyl-benzamide] | 
22 |  |  | 2660 | > 10 | C[C@@](Cc1c[nH]c2ccccc12)(NC(=O)c1ncoc1-c1ccccc1)C(=O)NCC1(c2ccccn2)CCCCC1 [Example 80, 5-Phenyl-oxazole-4-carboxylic acid {(S)-2-(1H-indol-3-yl)-1-methyl-1-[(1-pyridin-2-yl-cyclohexylmethyl)-carbamoyl]-ethyl}-amide] | 
23 | 652 | 58 to 60 |  |  | C[C@@](Cc1c[nH]c2ccccc12)(NCc1ccc([N+](=O)[O-])cc1)C(=O)NCC1(c2ccccn2)CCCCC1 [Example 27, (S)-3-(1H-Indol-3-yl)-2-methyl-2-(4-nitro-benzylamino)-N-(1-pyridin-2-yl-cyclohexylmethyl)-propionamide] | 
24 |  |  | 1880 | > 10 | C[C@@](Cc1c[nH]c2ccccc12)(NC(=O)c1ccc2[nH]ccc2c1)C(=O)NCC1(c2ccccn2)CCCCC1 [Example 67, 1H-Indole-5-carboxylic acid {(S)-2-(1H-indol-3-yl)-1-methyl-1-[(1-pyridin-2-yl-cyclohexylmethyl)-carbamoyl]-ethyl}-amide] | 
25 |  |  | 2200 | > 10 | C[C@@](Cc1c[nH]c2ccccc12)(NC(=O)c1ccsc1)C(=O)NCC1(c2ccccn2)CCCCC1 [Example 65, Thiophene-3-carboxylic acid {(S)-2-(1H-indol-3-yl)-1-methyl-1-[(1-pyridin-2-yl-cyclohexylmethyl)-carbamoyl]-ethyl}-amide] | 
